From US4732970A, “Antitumor amino acid and peptide derivatives of 1,4-bis(aminoalkyl and hydroxy-aminoalkyl)amino)-5,8-dihydroxyanthraquinones” (priority 1986, dated 1988)

Tested on: lymphocytic leukemia P388
Experiment: Lymphocytic Leukemia P388 Test
Type: in vivo, BDF1 mice
Details: for Median Survival: BDF1 mice; for T/C × 100 (%): ratio of survival time treated/control
Method in brief: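 BDF1 mice (5–6 per group) were inoculated i.p. with 10^6 P388 cells, then dosed i.p. on days 1, 5 and 9 at various doses. Survival was followed for 60 days, and median survival time and the treated/control (T/C) survival ratio were calculated.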

[1] = dose 0.75 mg/kg intraperitoneally on days 1, 5 and 9
[2] = dose 1.5 mg/kg intraperitoneally on days 1, 5 and 9
[3] = dose 3 mg/kg intraperitoneally on days 1, 5 and 9

Compound	Median Survival [1] [days]	T/C × 100 (%) [1] [%]	Median Survival [2] [days]	T/C × 100 (%) [2] [%]	Median Survival [3] [days]	T/C × 100 (%) [3] [%]
C[C@H](NC(=O)[C@@H](N)CO)C(=O)NCCNc1ccc(NCCNC(=O)[C@H](C)NC(=O)[C@@H](N)CO)c2c1C(=O)c1c(O)ccc(O)c1C2=O.O=C(O)C(F)(F)F.O=C(O)C(F)(F)F [Example 76, N,N'-[(9,10-Dihydro-5,8-dihydroxy-9,10-dioxo-1,4-anthracenediyl)bis(imino-2,1-ethanediyl)]bis[L-seryl-L-alaninamide]bis(trifluoroacetate)]	22.0	183	22.5	188	22.5	188
C[C@H](NC(=O)[C@H](CO)NC(=O)[C@H](CC(=O)OC(C)(C)C)NC(=O)OCC1c2ccccc2-c2ccccc21)C(=O)NCCNc1ccc(NCCNC(=O)[C@H](C)NC(=O)[C@H](CO)NC(=O)[C@H](CC(=O)OC(C)(C)C)NC(=O)OCC2c3ccccc3-c3ccccc32)c2c1C(=O)c1c(O)ccc(O)c1C2=O [Example 77, N,N'-[(9,10-Dihydro-5,8-dihydroxy-9,10-dioxo-1,4-anthracenediyl)bis(imino-2,1-ethanediyl)]bis[N-[(9H-fluoren-9-ylmethoxy)carbonyl]-L-α-aspartyl-L-seryl-L-alaninamide]bis(1,1-dimethylethyl)ester]	20.0	167	20.0	167	22.5	188
C[C@H](NC(=O)[C@H](CO)NC(=O)[C@@H](N)CC(=O)OC(C)(C)C)C(=O)NCCNc1ccc(NCCNC(=O)[C@H](C)NC(=O)[C@H](CO)NC(=O)[C@@H](N)CC(=O)OC(C)(C)C)c2c1C(=O)c1c(O)ccc(O)c1C2=O [Example 78, N,N'-[(9,10-Dihydro-5,8-dihydroxy-9,10-dioxo-1,4-anthracenediyl)bis(imino-2,1-ethanediyl)]bis[L-α-aspartyl-L-seryl-L-alaninamide]bis(1,1-dimethylethyl)ester]	18.0	150	23.0	192	22.5	188
C[C@H](NC(=O)[C@H](C)NC(=O)[C@H](CC(=O)OC(C)(C)C)NC(=O)OCC1c2ccccc2-c2ccccc21)C(=O)NCCNc1ccc(NCCNC(=O)[C@H](C)NC(=O)[C@H](C)NC(=O)[C@H](CC(=O)OC(C)(C)C)NC(=O)OCC2c3ccccc3-c3ccccc32)c2c1C(=O)c1c(O)ccc(O)c1C2=O [Example 79, N,N'-[(9,10-Dihydro-5,8-dihydroxy-9,10-dioxo-1,4-anthracenediyl)bis(imino-2,1-ethanediyl)]bis[N-[(9H-fluoren-9-ylmethoxy)carbonyl]-L-α-aspartyl-L-alanyl-L-alaninamide]bis(1,1-dimethylethyl)ester]	18.5	168	18.0	164	19.0	173
CC(NC(=O)C(N)CC(=O)OC(C)(C)C)C(=O)NC(C)C(=O)NCCNc1ccc(NCCNC(=O)C(C)NC(=O)C(C)NC(=O)C(N)CC(=O)OC(C)(C)C)c2c1C(=O)c1c(O)ccc(O)c1C2=O [Example 80, N,N'-[(9,10-Dihydro-5,8-dihydroxy-9,10-dioxo-1,4-anthracenediyl)bis(imino-2,1-ethanediyl)]bis[L-α-aspartyl-L-alanyl-L-alaninamide]bis(1,1-dimethylethyl)ester]	19.0	173	19.5	177	26.0	236
